Molecules are shown by their SMILES.

One series deals with CVB1. Put plainly: Antiviral activity against CVB1 in BGMK cells (RT-qPCR, TCID50). Format: cell-based, coxsackievirus B1. Conditions: 10 µM, 0.1 MOI, 24 h. As to the method: (§1) Detection of cellular mRNA expression and viral load was performed as described previously ([24]). In brief, the infected or mock-infected cells were lysed and applied to total RNA extraction by using the MiniBEST Universal RNA Extraction Kit (TaKaRa, Code No.9767). Viral RNA in the supernatant was extracted with the MiniBEST Viral RNA Extraction Kit (TaKaRa, Code No.9766). Reverse transcription was performed using the PrimeScript RT reagent Kit (TaKaRa, Code No.PR037A) with an oligo (dT) primer. The resultant cDNAs were used for qPCR assay with the Light Cycler 480 SYBR Green I Master Mix (Roche) to measure the mRNA expression level of cellular genes or viral load in supernatants. The relative viral gene copy was determined by RT-qPCR, using GAPDH as an internal reference.
(§2) The viral titer in the indicated samples was determined by TCID50 assay as described previously ([25]). Briefly, serially diluted samples from 10^−1 to 10^−8 in DMEM were inoculated to RD cells, BGMK cells, or MRC-5 in 96‐well plates. The cells were then incubated for 2 to 3 days at 37°C. TCID50 was calculated by counting the wells with cytopathic effect in infected cells using the Reed–Muench method.
The viral gene copy in the cell lysate is normalized with the transcript of GAPDH and presented. Viral titers were also detected by TCID50 assay. […] All experiments were independently repeated thrice.
(Real-time PCR tracks product formation cycle by cycle.)

For series [1], the system named is EV-A71. Put plainly: Time-of-drug addition assay in RD cells. Type of series: cell-based, Human enterovirus A71. The following applies: MOI 1, read at 12 hpi. The method, then:
RD cells were seeded into 24-well plates or eight-well chamber slides (Millicell) 1 day before infection with EV-A71 at an MOI of 1. After adsorption for 2 h, the cells were washed with PBS once to remove the unbound virus and maintained in DMEM supplemented with 2% FBS. […] At 12 hpi, the virus from the culture supernatant were collected, and the relative viral gene copy was detected by RT-qPCR. Meanwhile, the virus titer was assessed using TCID50 assay as described before. To analyze VP1 expression, the cells in the eight-well chamber slides were fixed and then monitored using immunofluorescence staining.
(A) Graphical scheme illustrating the experimental design. (B) RT-qPCR measured the amount of viral RNA released into culture supernatant. (C) Viral titer was determined in TCID50 assays. […] Nuclei are counterstained with DAPI (blue). Scale bar, 50 µm.

The subject of a further series is VEGFR2. Set-up: method as in PMID 17620431. Conditions: cited from earlier work.
Series [2] is described as follows: CellTiter-Glo luminescent cell viability assay (cytotoxicity). Conditions: human, RD cells. The method, then: Fig. S1. (A) RD cells were treated with the indicated concentrations of inhibitors and incubated at 37°C for 24 h. CellTiter‐Glo® luminescent cell viability assay was used to measure the CC50 of selected inhibitors. […] (B) RD cells treated with the selected inhibitors (10 μM) were inoculated with EV-A71 at an MOI of 0.01. At 48 hpi, cells were harvested to detect the expression level of VP1 by western blotting.
(In general: In ATP-based viability assays light output follows the ATP content of the culture.)

Series [3] has as its system EV-A71. Briefly: EV-A71 inactivation (virucidal) assay. Set-up: species or system Human enterovirus A71. Conditions: 10 µM, 2 h at 25°C, TCID50. The method, then: Fig. S5. […] (A) EV-A71 inactivation assay. […] (B) EV-A71 attachment assay. […] After 2 hpi, the infectious inoculum was removed and cells were washed again. The intracellular viral RNA load was then determined using RT-qPCR analysis. (C) EV-A71 entry assay.

For series [4], the system named is EV-A71. Put plainly: EV-A71 replication in multiple cell types (293T, Vero-E6, Huh7, HepG2, HT-29, Caco2). Format: cell-based, Human enterovirus A71. The following applies: Vero-E6, Huh7, HepG2 (MOI 1), HT-29, Caco2 (MOI 2), 24 hpi.
Series [5] deals with EV-A71. Put plainly: Viral load reduction assay in RD cells (RT-qPCR, TCID50, VP1 Western blot). Conditions: MOI 0.1, 24 h. Format: cell-based, Human enterovirus A71. The method, then: as §1, §2
Western blot analysis was performed as described previously ([26]). In brief, the indicated cell samples were lysed in RIPA buffer supplemented with protease inhibitors (Thermo Fisher Scientific, 78430). The cell lysates were then separated in 10% SDS-PAGE and transferred to a 0.45-µm nitrocellulose membrane. After blocking, the membrane was incubated with an against VP1 antibody (GeneTex, GTX132339), VEGFR1 antibody (Abcam, ab32152), VEGFR2 antibody (Abcam, ab134191), phosphorylated VEGFR2 antibody (Tyr951) (CST 4991), VEGFR3 antibody (Beyotime, AF6918), Akt antibody (CST 4685), phosphorylated Akt antibody (CST 4060), or GAPDH antibody (GeneTex, GTX627408) diluted 1:5,000 in primary antibody dilution buffer overnight at 4°C, followed by corresponding secondary staining. The blots were visualized by western horseradish peroxidase substrate and imaged with Gel Doc XR+.
The results represent cell viability in the EV-A71-infected RD cells or 2D human intestinal organoids treated with DMSO (Negative control), Pirodavir (Positive control), or indicated VEGFR inhibitor (10 µM) relative to those in mock-infected RD cells or 2D human intestinal organoids. […] Significant inhibition of EV-A71 infection was found for both cell lysate (left) and supernatant (right) using RT-qPCR analysis. The results represent the viral load in the cells treated with indicated inhibitors relative to that in DMSO-treated cells. (C) Viral titer was also determined for inhibitor-treated samples in TCID50 assays. […] (D) Representative images of immunofluorescence assay for selected inhibitors using Rabbit anti‐VP1 antibody (green). Nuclei are counterstained with DAPI (blue). Scale bar, 50 µm.
Nuclei are counterstained with DAPI (blue). Scale bar, 50 µm.
Fig. S2. […] The results represent the viral load in the cells treated with indicated concentration of VEGFR inhibitors relative to that in DMSO-treated cells. Viral titer was also determined for samples treated with indicated concentrations of VEGFR inhibitors in TCID50 assays.
Fig. S7. Viral reduction in RD cells with Src inhibitor treatment. […] Significant inhibition of EV-A71 infection was found for both cell lysate (left) and supernatant (middle) using RT-qPCR analysis. The results represent the viral load in the cells treated with Dasatinib relative to that in DMSO-treated cells. Viral titer was also determined for inhibitor-treated samples in TCID50 assays (right). […] (C) VP1 protein levels were measured for samples treated with DMSO or Dasatinib using western blotting.
Fig. S8. Viral reduction in RD cells with Akt inhibitor treatment. […] Significant inhibition of EV-A71 infection was found for both cell lysate (left) and supernatant (middle) using RT-qPCR analysis. […]

Series [6] has as its system IL-6, IL-8, TNF-α mRNA expression. Briefly: EV-A71-induced pro-inflammatory cytokine mRNA expression in Huh7 and THP-1 cells. Type of series: cell-based. Conditions: 10 µM, Huh7 (MOI 2) and THP-1 (MOI 5) cells, 12 hpi.

By IC50 is commonly meant the midpoint of a concentration-inhibition curve. One may read the CC50 as the concentration at which the toxic effect on the cells reaches its halfway point. A high value points to better tolerance by the cells. With `Cc1ccc(Nc2nccc(N(C)c3ccc4c(C)n(C)nc4c3)n2)cc1S(N)(=O)=O` [Pazopanib], in the series with CVB1, the “decrease in viral load and viral titer” value was “over 2 logs”. Further, the “inhibitory effect, late treatment” value in the series with EV-A71 [1] (10 µM added at 6 to 10 hpi) is “no significant inhibitory effect”. Further, the “viral load and viral titer of progeny virions in culture medium, early treatment” value in the series with EV-A71 [1] (10 µM added at −2 h, 0 h, 2 h, 4 h) was “significantly reduced”. In the series on VEGFR2, the IC50 is […]. The compound also returned a half-maximal cytotoxic concentration (CC50) at 24 h in series [2] of 226 ± 27.6 µM. The “virucidal effect (EV-A71 virus titers vs DMSO)” value with EV-A71 [3] is reported as “no virucidal effect”. In addition, the “EV-A71 replication in cell culture supernatants of multiple cell types” value in the series on EV-A71 [4] is reported as “significantly reduced”. For the same compound, the “EV-A71 structural protein VP1 expression, dose dependence (Western blot)” value with EV-A71 [5] (indicated concentrations) is “dose-dependent inhibition”. Further, in the series on EV-A71 [5] (indicated noncytotoxic concentrations), the “EV-A71 viral load and viral titer, dose dependence” value was “markedly reduced”. Also, the “EV-A71-induced pro-inflammatory cytokine activation” value in series [6] was “significantly suppressed”.

(Values after PMC11542593, “Vascular endothelial growth factor receptor 2 as a potential host target for the inhibition of enterovirus replication” (Journal of Virology, 2024).)
